Experimental findings from patent US9951064B2, “Azaindazole compounds as inhibitors of T790M containing EGFR mutants” (Genentech, Inc., priority 2013, dated 2018) are described below.

In assay [1] the test system is H1975 (EGFR T790M/L858R) cell proliferation. The assay can be described thus: H1975 proliferation assay (Cell Titer-Glo). It counts as cell-based. Conditions: Homo sapiens, NCI-H1975, 72 h, NCI-H1975 cells, 72 hour incubation, read-out: H1975 antiproliferative EC50. Here is the method: H1975 Proliferation Assays
All cell culture reagents were purchased from Invitrogen/Gibco. Cells are cultured at 37° C. at 5% CO2 and split as recommended by ATCC.
(Cellular ATP, detected with luciferase, serves as a proxy for viable cell number.)

Assay [2] addresses T1, phosphor-EGFR in H1975(L585R/T790M) mutant EGFR expressing cells (Homo sapiens, UniProt P00533, L858R/T790M).
T1 construct: host or cells: NCI-H1975
The assay can be described thus: H1975 pEGFR MSD cellular assay. It counts as cell-based. Conditions: NCI-H1975 cells, serum starved, 1 hour compound incubation, pEGFR Tyr1068 MSD; read-out: HI975 pEGFR EC50. An outline of the steps:
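NCI-H1975 cells, 30,000/well, serum-starved overnight, then treated 1 hour at 37° C with serially diluted compounds in serum-free medium (0.5% DMSO). Lysates captured on anti-phospho-EGFR plates overnight at 4° C, detected with SULFO-TAG anti-total EGFR by electrochemiluminescence. Inhibition vs untreated controls; EC50 from 4-parameter logistic fit.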

Assay [3] deals with T2, EGFR T790M L858R (Homo sapiens, UniProt P00533, L858R/T790M).
T2 construct: purchased Life Technologies PV4879
Description: EGFR T790M L858R biochemical assay (Caliper mobility shift). Conditions: 5 μM ATP; apparent Ki (Morrison fit) converted by Cheng-Prusoff, Km of ATP 1.3 μM. An outline of the steps:
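Reactions run 30 minutes at room temperature (22 °C), stopped with 80 mM EDTA. Phosphorylated product and substrate separated electrophoretically and quantified by Caliper mobility shift.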

The target of assay [4] is T3, EGFR del746-750 T790M (Homo sapiens, UniProt P00533, DEL746-750/T790M).
T3 construct: purchased Carna Biosciences 08-528
The assay can be described thus: EGFR del746-750 T790M biochemical assay (Caliper mobility shift). As to conditions: 5 μM ATP; apparent Ki (Morrison fit) converted by Cheng-Prusoff, Km of ATP 2.1 μM; read-out: EGFR(T790M/d746-750) Ki. An outline of the steps:
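Kinase reactions ran 30 min at room temperature (22 °C), then were stopped with 80 mM EDTA. Phosphorylated product and substrate were separated electrophoretically and quantified by Caliper mobility shift.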

T3 sequence (P00533 with tags, fused parts or gaps DEL746-750/T790M limits assumed): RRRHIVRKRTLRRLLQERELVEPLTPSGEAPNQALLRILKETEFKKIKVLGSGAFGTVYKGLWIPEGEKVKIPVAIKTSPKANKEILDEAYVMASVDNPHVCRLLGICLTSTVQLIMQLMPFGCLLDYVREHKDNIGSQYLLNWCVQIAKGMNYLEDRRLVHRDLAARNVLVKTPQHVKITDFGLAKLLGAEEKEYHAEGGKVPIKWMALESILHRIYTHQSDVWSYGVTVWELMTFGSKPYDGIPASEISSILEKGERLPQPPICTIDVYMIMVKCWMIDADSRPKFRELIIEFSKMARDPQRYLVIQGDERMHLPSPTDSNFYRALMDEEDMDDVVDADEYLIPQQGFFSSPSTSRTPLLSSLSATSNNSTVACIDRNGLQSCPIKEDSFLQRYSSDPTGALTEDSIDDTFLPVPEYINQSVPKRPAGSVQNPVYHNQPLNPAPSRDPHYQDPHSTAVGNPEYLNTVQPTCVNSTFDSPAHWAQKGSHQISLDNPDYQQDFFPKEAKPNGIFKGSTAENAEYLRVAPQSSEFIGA
T1 sequence (P00533 25-1210 T790M/L858R): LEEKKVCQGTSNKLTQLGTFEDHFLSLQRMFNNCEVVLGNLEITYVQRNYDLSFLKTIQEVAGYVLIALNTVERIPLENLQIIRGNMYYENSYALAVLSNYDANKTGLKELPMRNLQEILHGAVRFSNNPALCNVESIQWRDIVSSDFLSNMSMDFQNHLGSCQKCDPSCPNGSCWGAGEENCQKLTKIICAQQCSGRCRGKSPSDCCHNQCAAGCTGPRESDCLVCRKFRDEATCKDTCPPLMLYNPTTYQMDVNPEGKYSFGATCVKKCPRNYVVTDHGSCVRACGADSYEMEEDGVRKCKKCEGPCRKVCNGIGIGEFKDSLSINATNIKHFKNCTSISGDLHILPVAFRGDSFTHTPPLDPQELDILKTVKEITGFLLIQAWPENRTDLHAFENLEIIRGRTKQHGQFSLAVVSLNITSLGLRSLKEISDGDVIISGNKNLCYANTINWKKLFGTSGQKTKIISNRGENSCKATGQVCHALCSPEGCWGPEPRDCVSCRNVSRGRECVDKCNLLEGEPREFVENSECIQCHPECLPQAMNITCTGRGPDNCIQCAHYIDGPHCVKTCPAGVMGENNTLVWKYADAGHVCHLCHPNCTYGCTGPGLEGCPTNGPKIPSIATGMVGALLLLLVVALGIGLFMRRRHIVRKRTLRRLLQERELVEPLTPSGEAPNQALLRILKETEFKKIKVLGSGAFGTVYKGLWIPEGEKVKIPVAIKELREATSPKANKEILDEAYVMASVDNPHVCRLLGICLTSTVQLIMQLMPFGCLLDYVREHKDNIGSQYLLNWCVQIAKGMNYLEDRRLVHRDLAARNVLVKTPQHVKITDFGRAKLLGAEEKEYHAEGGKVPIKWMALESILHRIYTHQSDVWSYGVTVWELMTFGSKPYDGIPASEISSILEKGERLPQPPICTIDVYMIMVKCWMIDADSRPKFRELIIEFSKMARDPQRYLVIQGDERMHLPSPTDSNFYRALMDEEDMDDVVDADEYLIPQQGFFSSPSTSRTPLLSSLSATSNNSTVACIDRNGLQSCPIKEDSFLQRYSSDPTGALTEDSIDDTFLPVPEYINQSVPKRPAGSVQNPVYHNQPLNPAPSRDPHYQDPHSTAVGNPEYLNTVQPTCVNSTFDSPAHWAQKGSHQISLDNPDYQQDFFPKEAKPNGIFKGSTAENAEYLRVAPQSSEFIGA
T2 sequence (P00533 25-1210 T790M/L858R): as above

For `CC(C)n1nc(N2CC(C(C)(C)C#N)C2)c2cnc(Nc3ccnc(-c4cnn(S(=O)(=O)C5CC5)c4)n3)cc21` [Example 153, 2-(1-(6-(2-(1-(Cyclopropylsulfonyl)-1H-pyrazol-4-yl)pyrimidin-4-ylamino)-1-isopropyl-1H-pyrazolo[4,3-c]pyridin-3-yl)azetidin-3-yl)-2-methylpropanenitrile], the EC50 in assay [1] turned out to be 1380 nM; in assay [2] it was 133 nM. The Ki in assay [3] was 2.1 nM; in assay [4] it was 1.9 nM.
The corresponding values for `CC(C)n1nc(N2CC(F)(F)C2)c2cnc(Nc3ccnc(-c4cnn(S(=O)(=O)C5CC5)c4)n3)cc21` [Example 154, N-(2-(1-(Cyclopropylsulfonyl)-1H-pyrazol-4-yl)pyrimidin-4-yl)-3-(3,3-difluoroazetidin-1-yl)-1-isopropyl-1H-pyrazolo[4,3-c]pyridin-6-amine] are 312 nM, 82 nM, 2.8 nM and 2.9 nM.
The corresponding values for `CC(C)n1nc(N2CC(C#N)C2)c2cnc(Nc3ccnc(-c4cnn(S(=O)(=O)C5CC5)c4)n3)cc21` [Example 155, 1-(6-(2-(1-(Cyclopropylsulfonyl)-1H-pyrazol-4-yl)pyrimidin-4-ylamino)-1-isopropyl-1H-pyrazolo[4,3-c]pyridin-3-yl)azetidine-3-carbonitrile] are 144 nM, 28.9 nM, 1 nM and 0.9 nM.
Consider `CC(C)n1nc(N2CCC(C(=O)N(C)C)C2)c2cnc(Nc3ccnc(-c4cnn(S(=O)(=O)C5CC5)c4)n3)cc21` (centres unmarked) [Example 156, 1-(6-(2-(1-(Cyclopropylsulfonyl)-1H-pyrazol-4-yl)pyrimidin-4-ylamino)-1-isopropyl-1H-pyrazolo[4,3-c]pyridin-3-yl)N,N-dimethylpyrrolidine-3-carboxamide], for which the half-maximal effective concentration (EC50) was 163 nM in assay [1] and 39.2 nM in assay [2]. Moreover, the Ki is 1.1 nM in assay [3] and 0.8 nM in assay [4].
The corresponding values for `CC(C)n1nc(N2CCC(C)(C(N)=O)C2)c2cnc(Nc3ccnc(N4CCC(C)(O)CC4)n3)cc21` (centres unmarked) [Example 157, 1-(6-(2-(4-Hydroxy-4-methylpiperidin-1-yl)pyrimidin-4-ylamino)-1-isopropyl-1H-pyrazolo[4,3-c]pyridin-3-yl)-3-methylpyrrolidine-3-carboxamide] are 2860 nM, 1330 nM, 2.6 nM and 4.9 nM.
Take `CC(C)n1nc(N2CC[C@@H](N)C2=O)c2cnc(Nc3ccnc(N4CCC(C)(O)CC4)n3)cc21` [Example 158, (R)-3-Amino-1-(6-(2-(4-hydroxy-4-methylpiperidin-1-yl)pyrimidin-4-ylamino)-1-isopropyl-1H-pyrazolo[4,3-c]pyridin-3-yl)pyrrolidin-2-one]: the EC50 in assay [1] came to 8120 nM; in assay [2], 1300 nM. The Ki in assay [3] amounted to 18.5 nM; in assay [4], 50.9 nM.
Take `CC(C)n1nc(N2CC[C@H](N)C2=O)c2cnc(Nc3ccnc(N4CCC(C)(O)CC4)n3)cc21` [Example 159, (S)-3-Amino-1-(6-(2-(4-hydroxy-4-methylpiperidin-1-yl)pyrimidin-4-ylamino)-1-isopropyl-1H-pyrazolo[4,3-c]pyridin-3-yl)pyrrolidin-2-one]: the EC50 in assay [1] turned out to be 9730 nM; in assay [2], 1100 nM. For the same molecule, the Ki in assay [3] turned out to be 11.6 nM; in assay [4], 28.5 nM.
Take `CC(C)n1nc(N2CC3(C2)CS(=O)(=O)C3)c2cnc(Nc3ccnc(N4CCC(C)(O)CC4)n3)cc21` [Example 160, 6-(6-((2-(4-Hydroxy-4-methylpiperidin-1-yl)pyrimidin-4-yl)amino)-1-isopropyl-1H-pyrazolo[4,3-c]pyridin-3-yl)-2-thia-6-azaspiro[3.3]heptane 2,2-dioxide]: the EC50 is 3090 nM in assay [1] and 962 nM in assay [2]. Also, the values for the Ki in assay [3] and in assay [4] were 5.1 nM and 9.7 nM, respectively.
Regarding `CNC(=O)C1CN(c2nn(C(C)C)c3cc(Nc4ccnc(-c5cnn(S(=O)(=O)C6CC6)c5)n4)ncc23)C1` [Example 161, 1-(6-(2-(1-(Cyclopropylsulfonyl)-1H-pyrazol-4-yl)pyrimidin-4-ylamino)-1-isopropyl-1H-pyrazolo[4,3-c]pyridin-3-yl)-N-methylazetidine-3-carboxamide], the figures for the concentration for a half-maximal effect (EC50) in assay [1] and in assay [2] were 650 nM and 54.3 nM, respectively. Moreover, the figures for the Ki in assay [3] and in assay [4] were 0.7 nM and 0.6 nM, respectively.
For `CCNC(=O)C1CN(c2nn(C(C)C)c3cc(Nc4ccnc(-c5cnn(S(=O)(=O)C6CC6)c5)n4)ncc23)C1` [Example 162, 1-(6-(2-(1-(Cyclopropylsulfonyl)-1H-pyrazol-4-yl)pyrimidin-4-ylamino)-1-isopropyl-1H-pyrazolo[4,3-c]pyridin-3-yl)-N-ethylazetidine-3-carboxamide], in that order: 484 nM, 56.6 nM, 1 nM and 0.8 nM.
The corresponding values for `CC(C)n1nc(N2CC(C(=O)N3CCOCC3)C2)c2cnc(Nc3ccnc(-c4cnn(S(=O)(=O)C5CC5)c4)n3)cc21` [Example 163, (1-(6-(2-(1-(Cyclopropylsulfonyl)-1H-pyrazol-4-yl)pyrimidin-4-ylamino)-1-isopropyl-1H-pyrazolo[4,3-c]pyridin-3-yl)azetidin-3-yl)(morpholino)methanone] are 344 nM, 26.5 nM, 0.9 nM and 0.9 nM.
The corresponding values for `CC(C)n1nc(N2CC(C(=O)N3CC[C@@H](O)C3)C2)c2cnc(Nc3ccnc(-c4cnn(S(=O)(=O)C5CC5)c4)n3)cc21` [Example 164, (R)-(1-(6-(2-(1-(Cyclopropylsulfonyl)-1H-pyrazol-4-yl)pyrimidin-4-ylamino)-1-isopropyl-1H-pyrazolo[4,3-c]pyridin-3-yl)azetidin-3-yl)(3-hydroxypyrrolidin-1-yl)methanone] are 2520 nM, 430 nM, 1.2 nM and 1.1 nM.
Take `CC(C)n1nc(N2CC(C(=O)NCC(F)(F)F)C2)c2cnc(Nc3ccnc(-c4cnn(S(=O)(=O)C5CC5)c4)n3)cc21` [Example 165, 1-(6-(2-(1-(Cyclopropylsulfonyl)-1H-pyrazol-4-yl)pyrimidin-4-ylamino)-1-isopropyl-1H-pyrazolo[4,3-c]pyridin-3-yl)-N-(2,2,2-trifluoroethyl)azetidine-3-carboxamide]: the half-maximal effective concentration (EC50) worked out at 193 nM in assay [1] and 95.6 nM in assay [2]. Further, the Ki in assay [3] and in assay [4] was 1.9 nM in each case.
Take `CC(C)n1nc(N2CC(C(=O)N3CC[C@H](CO)C3)C2)c2cnc(Nc3ccnc(-c4cnn(S(=O)(=O)C5CC5)c4)n3)cc21` [Example 166, (S)-(1-(6-(2-(1-(cyclopropylsulfonyl)-1H-pyrazol-4-yl)pyrimidin-4-ylamino)-1-isopropyl-1H-pyrazolo[4,3-c]pyridin-3-yl)azetidin-3-yl)(3-(hydroxymethyl)pyrrolidin-1-yl)methanone]: the EC50 was determined as 1160 nM in assay [1] and 177 nM in assay [2]. Moreover, the Ki in assay [3] and in assay [4] was 0.7 nM throughout.
With `CC(C)n1nc(N2CC(C(=O)N3CC[C@@H](CO)C3)C2)c2cnc(Nc3ccnc(-c4cnn(S(=O)(=O)C5CC5)c4)n3)cc21` [Example 167, (R)-(1-(6-(2-(1-(cyclopropylsulfonyl)-1H-pyrazol-4-yl)pyrimidin-4-ylamino)-1-isopropyl-1H-pyrazolo[4,3-c]pyridin-3-yl)azetidin-3-yl)(3-(hydroxymethyl)pyrrolidin-1-yl)methanone], the EC50 in assay [1] is 1830 nM; in assay [2], 189 nM. In addition, the results for the Ki in assay [3] and in assay [4] were 0.7 nM and 0.5 nM, respectively.
As to `CC(C)n1nc(N2CC(C(=O)N3CC4CCC(C3)O4)C2)c2cnc(Nc3ccnc(-c4cnn(S(=O)(=O)C5CC5)c4)n3)cc21` [Example 168, 8-Oxa-3-azabicyclo[3.2.1]octan-3-yl(1-(6-(2-(1-(cyclopropylsulfonyl)-1H-pyrazol-4-yl)pyrimidin-4-ylamino)-1-isopropyl-1H-pyrazolo[4,3-c]pyridin-3-yl)azetidin-3-yl)methanone], the 50% effective concentration (EC50) in assay [1] was 283 nM; in assay [2], 25.5 nM. Also, the results for the Ki in assay [3] and in assay [4] were 1.5 nM and 1.2 nM, respectively.
As to `CC(C)NC(=O)C1CN(c2nn(C(C)C)c3cc(Nc4ccnc(-c5cnn(S(=O)(=O)C6CC6)c5)n4)ncc23)C1` [Example 169, 1-(6-(2-(1-(Cyclopropylsulfonyl)-1H-pyrazol-4-yl)pyrimidin-4-ylamino)-1-isopropyl-1H-pyrazolo[4,3-c]pyridin-3-yl)-N-isopropylazetidine-3-carboxamide], the EC50 in assay [1] turned out to be 825 nM; in assay [2], 34.2 nM. Further, the Ki in assay [3] was found to be 1.4 nM; in assay [4], 1.2 nM.

A word on the EC50: it is the concentration needed to bring the measured effect to its halfway point.
